Test results reported in the supplement of paper PMC10307832.

Experiments:
Test in all cases: relative viability (nuclei count vs DMSO), 5 days (fraction); higher = more cells survive
NCI-H520 = tested on: NCI-H520
In short: (§1)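 Cells from lung cancer lines were seeded into 1536-well plates and, one day later, dosed by pin tool. Treatments were either a single drug or a fixed dose of an anchor drug with five library-drug doses (not always all listed) in √10 steps. After 5 days, nuclei were stained in a one-step fixation (final 0.05% Triton X-100, 1% formaldehyde, 1 ug/ml Hoechst) and counted on 4× images, and relative viability is the treated-to-vehicle nuclei ratio, as the median of duplicate plates.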

NCI-H460 = tested on: NCI-H460
In short: as §1

PC-3 [JPC-3] = tested on: PC-3 [JPC-3]
In short: as §1

NCI-H1915 = tested on: NCI-H1915
In short: as §1

NCI-H661 = tested on: NCI-H661
In short: as §1

BEN = tested on: BEN
In short: as §1

CAL-12T = tested on: CAL-12T
In short: as §1

NCI-H727 = tested on: NCI-H727
In short: as §1

NCI-H650 = tested on: NCI-H650
In short: as §1

NCI-H2023 = tested on: NCI-H2023
In short: as §1

LCLC-97TM1 = tested on: LCLC-97TM1
In short: as §1

Cc1sc2c(c1C)C(c1ccc(Cl)cc1)=N[C@@H](CC(=O)OC(C)(C)C)c1nnc(C)n1-2 [JQ1] + CCNC(=O)c1noc(-c2cc(C(C)C)c(O)cc2O)c1-c1ccc(CN2CCOCC2)cc1 [Luminespib] (partner 0.01 µM)
relative viability (NCI-H520; first compound 0.04 µM): 0.224
relative viability (NCI-H520; first compound 0.1265 µM): 0.244
relative viability (NCI-H520; first compound 0.4 µM): 0.218
relative viability (NCI-H520; first compound 1.265 µM): 0.25
relative viability (NCI-H520; first compound 4 µM): 0.229
relative viability (NCI-H460; first compound 0.04 µM): 0.031
relative viability (NCI-H460; first compound 0.1265 µM): 0.0279
relative viability (NCI-H460; first compound 0.4 µM): 0.0618
relative viability (NCI-H460; first compound 1.265 µM): 0.032
relative viability (NCI-H460; first compound 4 µM): 0.0328
relative viability (PC-3 [JPC-3]; first compound 0.04 µM): 0.82
relative viability (PC-3 [JPC-3]; first compound 0.1265 µM): 0.716
relative viability (PC-3 [JPC-3]; first compound 0.4 µM): 0.614
relative viability (PC-3 [JPC-3]; first compound 1.265 µM): 0.443
relative viability (PC-3 [JPC-3]; first compound 4 µM): 0.302
relative viability (NCI-H1915; first compound 0.04 µM): 0.56
relative viability (NCI-H1915; first compound 0.1265 µM): 0.668
relative viability (NCI-H1915; first compound 0.4 µM): 0.364
relative viability (NCI-H1915; first compound 1.265 µM): 0.32
relative viability (NCI-H1915; first compound 4 µM): 0.186
relative viability (NCI-H661; first compound 0.04 µM): 0.971
relative viability (NCI-H661; first compound 0.1265 µM): 0.968
relative viability (NCI-H661; first compound 0.4 µM): 1.01
relative viability (NCI-H661; first compound 1.265 µM): 0.646
relative viability (NCI-H661; first compound 4 µM): 0.593
relative viability (BEN; first compound 0.04 µM): 0.259
relative viability (BEN; first compound 0.1265 µM): 0.329
relative viability (BEN; first compound 0.4 µM): 0.379
relative viability (BEN; first compound 1.265 µM): 0.126
relative viability (BEN; first compound 4 µM): 0.169
relative viability (CAL-12T; first compound 0.04 µM): 0.364
relative viability (CAL-12T; first compound 0.1265 µM): 0.184
relative viability (CAL-12T; first compound 0.4 µM): 0.367
relative viability (CAL-12T; first compound 1.265 µM): 0.134
relative viability (CAL-12T; first compound 4 µM): 0.146
relative viability (NCI-H727; first compound 0.04 µM): 0.357
relative viability (NCI-H727; first compound 0.1265 µM): 0.423
relative viability (NCI-H727; first compound 0.4 µM): 0.45
relative viability (NCI-H727; first compound 1.265 µM): 0.35
relative viability (NCI-H727; first compound 4 µM): 0.346
relative viability (NCI-H650; first compound 0.04 µM): 0.743
relative viability (NCI-H650; first compound 0.1265 µM): 0.7
relative viability (NCI-H650; first compound 0.4 µM): 0.546
relative viability (NCI-H650; first compound 1.265 µM): 0.203
relative viability (NCI-H650; first compound 4 µM): 0.212
relative viability (NCI-H2023; first compound 0.04 µM): 0.731
relative viability (NCI-H2023; first compound 0.1265 µM): 0.67
relative viability (NCI-H2023; first compound 0.4 µM): 0.358
relative viability (NCI-H2023; first compound 1.265 µM): 0.107
relative viability (NCI-H2023; first compound 4 µM): 0.146
relative viability (LCLC-97TM1; first compound 0.04 µM): 0.81
relative viability (LCLC-97TM1; first compound 0.1265 µM): 0.762
relative viability (LCLC-97TM1; first compound 0.4 µM): 0.768
relative viability (LCLC-97TM1; first compound 1.265 µM): 0.356
relative viability (LCLC-97TM1; first compound 4 µM): 0.3
